Laboratory results: patent US9238657B2, “Cephalosporin having catechol group” (SHIONOGI & CO., LTD., priority 2008, dated 2016)
Values after ≈ are worked out from the molar mass of the structure shown. Read-outs that look alike come from different tables or passages of the source.

Columns and labels:
Experiment in all cases: Minimum Inhibitory Concentration (MIC), agar plate incubation
Type in all cases: cell-based
[1] = system: Pseudomonas aeruginosa SR24
Experimental: (§1) Measurement of Minimum Inhibitory Concentration (MIC, microg/ml) was conducted according to the standard method of the Japan Society for Chemotherapy, and the amount of bacteria for inoculation was 1000 cfu/spot, and sensitive disc medium was used as the test medium, and conducted using agar plate incubation.
(§2) In the tables, a unit of the values of inhibitory activity is microg/ml (μg/ml).
(§3) Bacterial strains described in the above tables and enzyme (beta-lactamase) produced thereby are explained in Table 7.

[2] = system: Klebsiella pneumoniae ATCC 700603
Experimental: as §1, §2, §3

[3] = system: Pseudomonas aeruginosa SR27060
Experimental: as §1, §2, §3

[4] = system: Acinetobacter baumannii SR24396
Experimental: as §1, §2, §3

[5] = system: Stenotrophomonas maltophilia SR21970
Experimental: as §1, §2, §3

[6] = Pseudomonas aeruginosa SR24 (no enzyme, Ceftazidime sensitive strain), 1000 cfu/spot, sensitive disc medium, read-out: Minimum Inhibitory Concentration (MIC)
[7] = ATCC700603, Klebsiella pneumoniae ATCC 700603 (SHV-18, ESBL producer strain), 1000 cfu/spot, sensitive disc medium, read-out: Minimum Inhibitory Concentration (MIC)
[8] = Pseudomonas aeruginosa SR27060 (IMP-1, MBL producer strain, carbapenem resistant), 1000 cfu/spot, sensitive disc medium, read-out: Minimum Inhibitory Concentration (MIC)
[9] = Acinetobacter baumannii SR24396 (no enzyme), 1000 cfu/spot, sensitive disc medium, read-out: Minimum Inhibitory Concentration (MIC)
[10] = Stenotrophomonas maltophilia SR21970 (L-1, MBL producer strain, carbapenem resistant), 1000 cfu/spot, sensitive disc medium, read-out: Minimum Inhibitory Concentration (MIC)
[11] = Pseudomonas aeruginosa, SR24, read-out: Minimum Inhibitory Concentration (MIC)
[12] = Klebsiella pneumoniae, ATCC700603, read-out: Minimum Inhibitory Concentration (MIC)
[13] = Pseudomonas aeruginosa, SR27060, read-out: Minimum Inhibitory Concentration (MIC)
[14] = Acinetobacter baumannii, SR24396, read-out: Minimum Inhibitory Concentration (MIC)

SMILES	MIC [1, 6]	MIC [2, 7]	MIC [3, 8]	MIC [4, 9]	MIC [5, 10]	MIC [1, 11]	MIC [2, 12]	MIC [3, 13]	MIC [4, 14]	MIC ([5]; Stenotrophomonas maltophilia, SR21970, read-out: Minimum Inhibitory Concentration (MIC))
CC(C)(O/N=C(\C(=O)N[C@@H]1C(=O)N2C(C(=O)[O-])=C(C[N+]3(CCNC(=O)c4ccc(O)c(O)c4Cl)CCCC3)CS[C@H]12)c1csc(N)n1)C(=O)O [Compound I-12]	0.063 µg/mL (≈ 0.0838 µM)	0.25 µg/mL (≈ 0.332 µM)	0.125 µg/mL (≈ 0.166 µM)	0.25 µg/mL (≈ 0.332 µM)	0.5 µg/mL (≈ 0.665 µM)	–	–	–	–	–
CC(C)(O/N=C(\C(=O)N[C@@H]1C(=O)N2C(C(=O)[O-])=C(C[N+]3(CCNC(=O)c4ccc(O)c(O)c4)CCCCC3)CS[C@H]12)c1csc(N)n1)C(=O)O [Compound I-17]	0.063 µg/mL (≈ 0.0861 µM)	0.25 µg/mL (≈ 0.342 µM)	0.125 µg/mL (≈ 0.171 µM)	0.5 µg/mL (≈ 0.683 µM)	0.5 µg/mL (≈ 0.683 µM)	–	–	–	–	–
COc1c(O)ccc(C(=O)NCC[N+]2(CC3=C(C(=O)[O-])N4C(=O)C(NC(=O)/C(=N\OC(C)(C)C(=O)O)c5csc(N)n5)C4SC3)CCCC2)c1Cl (stereo not drawn) [Comparative Compound 1, reference compound]	4 µg/mL (≈ 5.22 µM)	16 µg/mL (≈ 20.9 µM)	32 µg/mL (≈ 41.8 µM)	64 µg/mL (≈ 83.5 µM)	16 µg/mL (≈ 20.9 µM)	–	–	–	–	–
CC(C)(O/N=C(\C(=O)N[C@@H]1C(=O)N2C(C(=O)O)=C(C[N+]3(CCNC(=O)c4cc(Cl)c(O)c(O)c4Cl)CCCC3)CS[C@H]12)c1csc(N)n1)C(=O)O [Compound I-3]	0.031 µg/mL	0.125 µg/mL	0.125 µg/mL	0.125 µg/mL	–	–	–	–	–	–
C[C@H](O/N=C(\C(=O)N[C@@H]1C(=O)N2C(C(=O)[O-])=C(C[N+]3(CCNC(=O)c4cc(Cl)c(O)c(O)c4Cl)CCCCC3)CS[C@H]12)c1nc(N)sc1Cl)C(=O)[O-].[Na+] [Compound I-23]	0.031 µg/mL	0.031 µg/mL	0.125 µg/mL	0.125 µg/mL	–	–	–	–	–	–
CC(C)(O/N=C(\C(=O)N[C@@H]1C(=O)N2C(C(=O)[O-])=C(C[N+]3(CCNC(=O)c4ccc(O)c(O)c4Cl)CCCC3)CS[C@H]12)c1nsc(N)n1)C(=O)O [Compound I-1]	0.063 µg/mL (≈ 0.0836 µM)	0.5 µg/mL (≈ 0.664 µM)	0.25 µg/mL (≈ 0.332 µM)	0.125 µg/mL (≈ 0.166 µM)	0.5 µg/mL (≈ 0.664 µM)	–	–	–	–	–
CC(C)(O/N=C(\C(=O)N[C@@H]1C(=O)N2C(C(=O)[O-])=C(C[N+]3(CCNC(=O)c4ccc(O)c(O)c4Cl)CCCCCC3)CS[C@H]12)c1csc(N)n1)C(=O)O [Compound I-8]	–	–	–	–	–	0.031 µg/mL (≈ 0.0397 µM)	0.125 µg/mL (≈ 0.16 µM)	0.125 µg/mL (≈ 0.16 µM)	0.25 µg/mL (≈ 0.32 µM)	–
C[C@H](O/N=C(\C(=O)N[C@@H]1C(=O)N2C(C(=O)[O-])=C(C[N+]3(CCNC(=O)c4ccc(O)c(O)c4Cl)CCCCC3)CS[C@H]12)c1nc(N)sc1Cl)C(=O)[O-].[Na+] [Compound I-22]	0.063 µg/mL	0.125 µg/mL	0.125 µg/mL	0.25 µg/mL	4 µg/mL	–	–	–	–	–
Nc1nc(/C(=N/O[C@H](C(=O)O)c2ccccc2)C(=O)N[C@@H]2C(=O)N3C(C(=O)[O-])=C(C[N+]4(CCNC(=O)c5ccc(O)c(O)c5Cl)CCCC4)CS[C@H]23)cs1 [II-3]	–	–	–	–	–	0.125 µg/mL (≈ 0.156 µM)	0.125 µg/mL (≈ 0.156 µM)	0.5 µg/mL (≈ 0.625 µM)	0.25 µg/mL (≈ 0.312 µM)	1 µg/mL (≈ 1.25 µM)

Further lines, with some results ahead:

MIC [1, 6]	MIC [2, 7]	MIC [3, 8]	MIC [4, 9]	MIC [5, 10]	SMILES	MIC [1, 11]	MIC [2, 12]	MIC [3, 13]	MIC [4, 14]	MIC ([5]; Stenotrophomonas maltophilia, SR21970, read-out: Minimum Inhibitory Concentration (MIC))
0.063 µg/mL (≈ 0.084 µM)	0.25 µg/mL (≈ 0.333 µM)	0.5 µg/mL (≈ 0.666 µM)	0.25 µg/mL (≈ 0.333 µM)	1 µg/mL (≈ 1.33 µM)	CC(C)(O/N=C(\C(=O)N[C@@H]1C(=O)N2C(C(=O)O)=C(C[N+]3(CCNC(=O)c4ccc(O)c(O)c4Cl)CC=CC3)CS[C@H]12)c1csc(N)n1)C(=O)[O-] [II-13]	–	–	–	–	–
0.125 µg/mL (≈ 0.167 µM)	0.5 µg/mL (≈ 0.666 µM)	0.25 µg/mL (≈ 0.333 µM)	0.125 µg/mL (≈ 0.167 µM)	0.5 µg/mL (≈ 0.666 µM)	Nc1nc(/C(=N/OC2(C(=O)[O-])CC2)C(=O)N[C@@H]2C(=O)N3C(C(=O)O)=C(C[N+]4(CCNC(=O)c5ccc(O)c(O)c5Cl)CCCC4)CS[C@H]23)cs1 [II-2]	–	–	–	–	–
0.063 µg/mL (≈ 0.0824 µM)	0.125 µg/mL (≈ 0.164 µM)	0.5 µg/mL (≈ 0.654 µM)	0.125 µg/mL (≈ 0.164 µM)	0.5 µg/mL (≈ 0.654 µM)	Nc1nc(/C(=N/OC2(C(=O)O)CCC2)C(=O)N[C@@H]2C(=O)N3C(C(=O)[O-])=C(C[N+]4(CCNC(=O)c5ccc(O)c(O)c5Cl)CCCC4)CS[C@H]23)cs1 [II-24]	–	–	–	–	–
